From paper PMC4407906, “Structure-Guided Engineering of Molinate Hydrolase for the Degradation of Thiocarbamate Pesticides” (PLoS ONE, 2015)

Key:
molinate hydrolase [1] = target: T1, molinate hydrolase (Gulosibacter molinativorax, UniProt G2XLB0); assay: UV spectrophotometric molinate depletion at […] nm, […] 2-mercaptoethanol; assay type: biochemical
T1 construct: gene molA; recombinant protein with a 32 amino acid purification tag

molinate hydrolase [2] = target: T1, molinate hydrolase; assay: HPLC assay of molinate depletion with purified recombinant enzyme; competitive inhibition fit; assay type: biochemical
molinate hydrolase [3] = target: T1, molinate hydrolase; assay: UV spectrophotometric molinate depletion at […] nm, […] L-cysteine; assay type: biochemical
[4] = target: the molecule itself; assay: crystal structure; recombinant molinate hydrolase co-crystallised with ZnCl2 (4 or 8 mM), vapour diffusion at 20°C, sodium citrate pH 5.6-6.4, 2-propanol, PEG 4000, glycerol; monoclinic C2 with 8 monomers and orthorhombic with 4 monomers in the asymmetric unit

T1 sequence (G2XLB0 entry or part of it): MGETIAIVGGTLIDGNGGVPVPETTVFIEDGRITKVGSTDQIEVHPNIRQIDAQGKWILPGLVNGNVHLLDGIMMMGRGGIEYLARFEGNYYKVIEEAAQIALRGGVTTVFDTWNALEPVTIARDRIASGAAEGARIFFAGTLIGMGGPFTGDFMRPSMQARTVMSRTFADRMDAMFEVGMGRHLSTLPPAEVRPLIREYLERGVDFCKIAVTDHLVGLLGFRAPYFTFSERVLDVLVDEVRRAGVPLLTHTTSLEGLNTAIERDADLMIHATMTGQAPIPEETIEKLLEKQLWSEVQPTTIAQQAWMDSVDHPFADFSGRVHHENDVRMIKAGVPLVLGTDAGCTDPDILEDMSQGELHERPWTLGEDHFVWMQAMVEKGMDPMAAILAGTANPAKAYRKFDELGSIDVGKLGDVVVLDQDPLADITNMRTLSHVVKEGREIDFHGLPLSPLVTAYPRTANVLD

OCCS [2-mercaptoethanol]
UV spectrophotometric molinate depletion at 220 nm, 3 mM 2-mercaptoethanol (molinate hydrolase [1]): other thiolated compounds, such as β-mercaptoethanol, also inhibited molinate hydrolase

CCS [ethanethiol]
Ki (molinate hydrolase [2]): 300 µM

N[C@@H](CS)C(=O)O [L-cysteine]
UV spectrophotometric molinate depletion at 220 nm, 1.5 mM L-cysteine (molinate hydrolase [3]): cysteine also inhibits the enzyme activity, while serine and methionine do not

B1: recombinant molinate hydrolase (enzyme, Gulosibacter molinativorax ON4T)
chain: GETIAIVGGTLIDGNGGVPVPETTVFIEDGRITKVGSTDQIEVHPNIRQIDAQGKWILPGLVNGNVHLLDGIMMMGRGGIEYLARFEGNYYKVIEEAAQIALRGGVTTVFDTWNALEPVTIARDRIASGAAEGARIFFAGTLIGMGGPFTGDFMRPSMQARTVMSRTFADRMDAMFEVGMGRHLSTLPPAEVRPLIREYLERGVDFCKIAVTDHLVGLLGFRAPYFTFSERVLDVLVDEVRRAGVPLLTHTTSLEGLNTAIERDADLMIHATMTGQAPIPEETIEKLLEKQLWSEVQPTTIAQQAWMDSVDHPFADFSGRVHHENDVRMIKAGVPLVLGTDAGCTDPDILEDMSQGELHERPWTLGEDHFVWMQAMVEKGMDPMAAILAGTANPAKAYRKFDELGSIDVGKLGDVVVLDQDPLADITNMRTLSHVVKEGREIDFHGLPLSPLVTAYPRTANVLD
notes: molinate hydrolase (MolA) from Gulosibacter molinativorax ON4T; 1984 residues expected for 4 monomers (496 each, tag included); One Zn2+ per monomer (occupancy set to 0.4) in the deposited structure; A SeMet derivative (from E. coli B834 (DE3), metal-depleted) was also solved, with the same overall structure; also called MolA; source: E. coli JM109 or B834 (DE3), vector pASKmolA, purified …
stoichiometry N [4]: 4
